Residues, ends and D or L forms follow the SMILES beside them.
Test system: CD8^+ T cells from HIV^+ subjects
Assay: FACS-based intracellular staining (ICS) for cytolysin (perforin) and cytotoxins (GrzA, GrzB) in CD8+ T cells
Details: HIV+ human subjects; for Cyto: CD8+ T-cell cytotoxins (perforin, GrzA & B), frequency of responders: FIV epitope peptide; for Cyto (cytolysin/cytotoxin production), frequency of responders: FIV peptides; for CyCD8: CD8+ T-cell cytolysin/cytotoxins (perforin, GrzA & B), frequency of responders: HIV-1 epitope peptide, threshold ≥0.2%
Protocol: The overlapping peptide pools of FIV and HIV-1 structural and enzyme proteins were used to stimulate the […] (PBMC) and the T cells from HIV^+ subjects as previously described for epitope mapping of HIV-1 and FIV p24 and reverse transcriptase (RT) (Sanou et al., 2013; Roff et al., 2015). The individual peptides in those peptide pools with positive responses to either interferon-γ (IFNγ) production and/or T-cell proliferation were determined with IFNγ ELISpot analysis and CFSE-based CD3^+CD4^+ and CD3^+CD8^+ T-cell proliferation analyses followed by the FACS-based intracellular staining (ICS) for cytolysin (perforin) and cytotoxin (granzyme A [GrzA] and GrzB) (Sanou et al., 2013; Roff et al., 2015). Besides viral p24 and RT proteins, the identical approach was used to identify anti-HIV/FIV T-cell epitopes on viral matrix (MA), nucleocapsid (NC), protease (PR), RNAase, integrase (IN), surface envelope (SU Env), and transmembrane envelope (TM Env) (FIG. 12).
Since our goal is to develop HIV vaccine for human use, the HIV peptides (Table 10) counterpart of the cross-reactive FIV peptides shown in Table 9 were tested with PBMC and T cells from HIV^+ subjects. The immune functions analyzed were human IFNγ production by ELISpot, cytolysin/cytotoxin production by ICS, and CFSE-based proliferation of CD3^+CD4^+ and CD3^+CD8^+ T cells from HIV^+ subjects (Table 10, the first set of results). In addition, the Los Alamos National Laboratories (LANL) database was used to identify the HLA allele(s) of the HIV epitope sequence with CTL activity that can exist within the sequence of the conserved counterpart HIV peptide (Table 9, LANL CTL). The bold HLA class-I supertypes and the bold 2-digit alleles are those on the “Optimal CD8^+ CTL Epitopes” list and those without bold are alleles for potential CTL epitope. […] The HLA class II such as HLA-DRB1 has yet to be fully classified into supertypes, and therefore the 4-digit resolution nomenclatures for the HLA-DRB1 alleles are shown.
The threshold for positive IFNγ and IL2 ELISpot responses is ≥50 spot-forming units (SFU) per 10^6 PBMC. The threshold for CFSE-based CD4^+ and CD8^+ T-cell proliferation is ≥2% CD4^+ T-cell CFSE^low or CD8^+ T-cell CFSE^low. The threshold of FACS-based intracellular cytokine staining (ICS) is ≥0.2%. […] The nine FIV peptides in black were used in the current MAP vaccine trial, whereas the 13 peptides in blue were not used. […] The MAPs and their corresponding peptide(s) were also tested for their ability to enhance or suppress in vitro FIV infection of feline PBMC (E/S of peptides and E/S of MAP).
The counterpart HIV-1 peptides of the FIV peptides were also tested for immunogenicity using PBMC and T cells from HIV^+ human subjects. […] The HRT7-1 and HRT7-2 were also tested with cells from HIV^+ subjects on ART. The threshold for positive IFNγ ELISpot response is ≥75 spot-forming units (SFU) per 10^6 PBMC. The threshold for CFSE-based CD4^+ (CD4^+ T) and CD8^+ (CD8^+ T) T-cell proliferation is ≥2% CD4^+ T-cell CFSE^low or CD8^+ T-cell CFSE^low. The threshold of intracellular cytokine staining (ICS) of FACS-based cytolysin (perforin) and cytotoxins (granzymes A and B) in CD4^+ T cells (CyCD4) and CD8^+ T cells (CyCD8) is ≥0.2%. […] The nine HIV-1 peptides in black are the counterpart FIV peptides used in the current MAP vaccine trial, whereas the 13 peptides in blue were not.

| SMILES | Cyto: CD8+ T-cell cytotoxins (perforin, GrzA & B), frequency of responders | Cyto (cytolysin/cytotoxin production), frequency of responders | CyCD8: CD8+ T-cell cytolysin/cytotoxins (perforin, GrzA & B), frequency of responders |
| --- | --- | --- | --- |
| CC[C@H](C)[C@H](NC(=O)[C@H](CCCNC(=N)N)NC(=O)[C@H](CC(C)C)NC(=O)[C@H](CO)NC(=O)[C@H](CCC(=O)O)NC(=O)[C@H](CCC(N)=O)NC(=O)[C@H](CCC(N)=O)NC(=O)[C@H](CCSC)NC(=O)[C@H](Cc1ccc(O)cc1)NC(=O)[C@H](CC(C)C)NC(=O)[C@H](CCC(=O)O)NC(=O)[C@@H](N)Cc1ccc(O)cc1)C(=O)N[C@@H](CCC(N)=O)C(=O)N[C@@H](CC(=O)O)C(=O)N[C@@H](CCCNC(=N)N)C(=O)O [FIN7-1] (H-YELYMQQESLRIQDR-OH; N-terminus and C-terminus assumed) | ++ (26%-40% (++)) | ++ (25.1%-40% (++)) | – |
| CC[C@H](C)[C@H](N)C(=O)N[C@@H](CC(=O)O)C(=O)N[C@@H](Cc1ccccc1)C(=O)N[C@@H](CCCNC(=N)N)C(=O)N[C@H](C(=O)N[C@@H](CC(C)C)C(=O)N[C@@H](CC(N)=O)C(=O)N[C@@H](CCCCN)C(=O)N[C@@H](CC(C)C)C(=O)N[C@H](C(=O)N[C@@H](CC(=O)O)C(=O)N[C@@H](CCCCN)C(=O)NCC(=O)N[C@@H](C)C(=O)O)[C@@H](C)O)C(C)C [FRT3-5] (H-IDFRVLNKLTDKGA-OH; N-terminus and C-terminus assumed) | +++ (41%-54% (+++)) | – | – |
| CC(C)C[C@H](NC(=O)[C@@H](NC(=O)[C@H](Cc1c[nH]c2ccccc12)NC(=O)CNC(=O)[C@H](CCC(N)=O)NC(=O)[C@@H]1CCCN1C(=O)[C@H](CC(C)C)NC(=O)[C@H](CO)NC(=O)[C@H](CS)NC(=O)[C@H](Cc1c[nH]c2ccccc12)NC(=O)[C@@H](NC(=O)[C@H](Cc1ccc(O)cc1)NC(=O)[C@H](CCCNC(=N)N)NC(=O)[C@H](CCCNC(=N)N)NC(=O)CN)C(C)C)C(C)C)C(=O)O [FRT7-1] (H-GRRYVWCSLPQGWVL-OH) | +++ (41%-54% (+++)) | +++ (40.1%-54% (+++)) | – |
| CC[C@H](C)[C@H](NC(=O)[C@H](CC(C)C)NC(=O)[C@@H]1CCCN1C(=O)[C@H](CO)NC(=O)[C@H](CC(C)C)NC(=O)[C@@H](NC(=O)[C@H](Cc1c[nH]c2ccccc12)NC(=O)CNC(=O)[C@H](CCC(N)=O)NC(=O)[C@@H]1CCCN1C(=O)[C@H](CC(C)C)NC(=O)[C@H](CO)NC(=O)[C@@H](N)CS)C(C)C)C(=O)N[C@@H](Cc1ccc(O)cc1)C(=O)O [FRT7-2] (H-CSLPQGWVLSPLIY-OH) | ++++ (>54% (++++)) | ++++ (>54% (++++)) | – |
| CSCC[C@H](NC(=O)[C@H](CCCNC(=N)N)NC(=O)[C@H](C)NC(=O)[C@@H]1CCCN1C(=O)[C@H](C)NC(=O)[C@@H](N)Cc1ccccc1)C(=O)N[C@@H](CCC(N)=O)C(=O)N[C@@H](CS)C(=O)N[C@@H](CCCNC(=N)N)C(=O)N[C@@H](C)C(=O)N[C@@H](Cc1c[nH]c2ccccc12)C(=O)N[C@@H](Cc1ccc(O)cc1)C(=O)N[C@@H](CC(C)C)C(=O)N[C@@H](CCC(=O)O)C(=O)N[C@@H](C)C(=O)O [Fp9-3] (H-FAPARMQCRAWYLEA-OH) | +++ (41%-54% (+++)) | +++ (40.1%-54% (+++)) | – |
| CC(C)C[C@H](NC(=O)[C@H](Cc1ccc(O)cc1)NC(=O)[C@H](CC(C)C)NC(=O)[C@H](CCCCN)NC(=O)[C@@H](NC(=O)[C@H](CCC(=O)O)NC(=O)[C@H](C)NC(=O)[C@@H](NC(=O)[C@H](CC(N)=O)NC(=O)[C@H](CCC(N)=O)NC(=O)[C@H](CCC(=O)O)NC(=O)[C@H](CCC(N)=O)NC(=O)[C@@H](N)CC(=O)O)[C@@H](C)O)C(C)C)C(=O)N[C@@H](CCCCN)C(=O)O [Fp14-1] (H-DQEQNTAEVKLYLK-OH) | +++ (41%-54% (+++)) | +++ (40.1%-54% (+++)) | – |
| CC[C@H](C)[C@H](NC(=O)[C@H](CO)NC(=O)[C@H](CC(C)C)NC(=O)[C@H](CO)NC(=O)[C@H](CCC(N)=O)NC(=O)[C@H](CCCCN)NC(=O)[C@H](CC(C)C)NC(=O)[C@H](Cc1ccc(O)cc1)NC(=O)[C@H](CC(C)C)NC(=O)[C@H](CCCCN)NC(=O)[C@@H](NC(=O)[C@H](CCC(=O)O)NC(=O)[C@H](C)N)C(C)C)C(=O)N[C@@H](C)C(=O)O [Fp14-3] (H-AEVKLYLKQSLSIA-OH; N-terminus and C-terminus assumed) | ++++ (>54% (++++)) | ++++ (>54% (++++)) | – |
| CC[C@H](C)[C@H](NC(=O)[C@H](CO)NC(=O)[C@H](CC(C)C)NC(=O)[C@H](CO)NC(=O)[C@H](CCC(N)=O)NC(=O)[C@H](CCCCN)NC(=O)[C@H](CC(C)C)NC(=O)[C@H](Cc1ccc(O)cc1)NC(=O)[C@H](CC(C)C)NC(=O)[C@@H](N)CCCCN)C(=O)N[C@@H](C)C(=O)N[C@@H](CC(N)=O)C(=O)N[C@@H](C)C(=O)O [Fp14-4] (H-KLYLKQSLSIANA-OH; N-terminus and C-terminus assumed) | ++++ (>54% (++++)) | ++++ (>54% (++++)) | – |
| CC[C@H](C)[C@H](NC(=O)[C@@H](N)CCCCN)C(=O)N[C@@H](CCCNC(=N)N)C(=O)N[C@@H](CC(C)C)C(=O)N[C@@H](CCCNC(=N)N)C(=O)N1CCC[C@H]1C(=O)NCC(=O)NCC(=O)N[C@@H](CCCCN)C(=O)N[C@@H](CCCCN)C(=O)N[C@@H](CCCCN)C(=O)N[C@@H](Cc1ccc(O)cc1)C(=O)O [HMA1] | – | – | − (0%-1.4% (−)) |
| CC(C)C[C@H](NC(=O)[C@@H](NC(=O)[C@H](C)NC(=O)[C@@H](NC(=O)[C@@H](NC(=O)[C@H](CC(N)=O)NC(=O)[C@H](Cc1ccc(O)cc1)NC(=O)[C@H](CC(C)C)NC(=O)[C@H](CO)NC(=O)[C@H](CCCNC(=N)N)NC(=O)[C@H](CC(C)C)NC(=O)[C@H](CCC(=O)O)NC(=O)[C@H](CCC(=O)O)NC(=O)[C@H](CO)NC(=O)CN)[C@@H](C)O)C(C)C)[C@@H](C)O)C(=O)O [HMA2] | – | – | − (0%-1.4% (−)) |
| CC[C@H](C)[C@H](NC(=O)[C@H](CCCCN)NC(=O)[C@@H](NC(=O)[C@@H](NC(=O)[C@@H](NC(=O)[C@H](CC(C)C)NC(=O)[C@@H]1CCCN1C(=O)[C@H](CCCNC(=N)N)NC(=O)[C@H](CCC(N)=O)NC(=O)[C@H](Cc1c[nH]c2ccccc12)NC(=O)[C@H](CC(C)C)NC(=O)[C@@H](N)[C@@H](C)O)C(C)C)[C@@H](C)O)[C@@H](C)CC)C(=O)NCC(=O)NCC(=O)O [HPR1] | – | – | − (0%-1.4% (−)) |
| CC[C@H](C)[C@H](N)C(=O)N1CCC[C@H]1C(=O)N[C@H](C(=O)NCC(=O)N[C@@H](CCC(=O)O)C(=O)N[C@H](C(=O)N[C@@H](Cc1ccc(O)cc1)C(=O)N[C@@H](CCCCN)C(=O)N[C@@H](CCCNC(=N)N)C(=O)N[C@@H](Cc1c[nH]c2ccccc12)C(=O)N[C@H](C(=O)N[C@H](C(=O)N[C@@H](CC(C)C)C(=O)NCC(=O)O)[C@@H](C)CC)[C@@H](C)CC)[C@@H](C)CC)C(C)C [Hp9-3 (10-3)] | – | – | +++ (40.1%-54% (+++)) |

From patent publication US10758609B2, “Cross-reactive T-cell epitopes of HIV, SIV, and FIV for vaccines in humans and cats” (priority 2015, dated 2020)
